Values belong to the compound of their own block, whether it stands above or below them.
Legend:
[1] = system: PSMA-expressing LNCaP cells; assay: Cellular uptake and internalization in LNCaP cells, blocking with 2-PMPA; format: cell-based
Experimental: Cellular uptake experiments were performed according to a previous report with slight modifications. LNCaP cells expressing PSMA were cultured in RPMI 1640 medium containing 10% fetal bovine serum (FBS) and 1% penicillin–streptomycin on 6-well culture plates (containing 5 × 10^5 cells/well) for 24 h in a humidified atmosphere (5% CO2) incubator at 37 °C. After removing the medium and washing with phosphate-buffered saline (PBS) (−) once, a mixed solution of [^125I]5 and [^211At]6, [^125I]5 and [^67Ga]Ga-PSMA-617, and [^125I]5 and [^67Ga]5 in 1.0 mL of medium without FBS was added (3.7 kBq/each tracer/well). The final concentrations of the radioligands for [^125I]5, [^211At]6, and [^67Ga]5 were 45.5 pM, 0.2 pM, and 2.5 pM, respectively. These solutions containing radioligands were diluted in saline containing 0.05% (w/v) bovine serum albumin (BSA) to prevent adsorption to tubes or plates and further diluted with medium to 0.00125% as the final BSA concentration. After incubation for 10, 60, and 120 min, the medium from each well was removed, and the cells were washed twice with ice-cold PBS (−); the surface of the cells was washed twice with ice-cold 0.2 M glycine buffer (pH 3.0). The cells were lysed using a 1 M NaOH aqueous solution. The radioactivity of ^67Ga,^125I and ^211At in the 1 M NaOH aqueous solution was determined and defined as the internalized radioligand fraction using an auto well gamma counter (ARC-8001, Hitachi, Ltd., Tokyo, Japan) according to a previous paper. The radioactivity was determined with an auto well gamma counter and corrected for background radiation and physical decay during counting. A window from 16 to 69 keV was used for counting ^125I, and a window from 70 to 120 keV was used for counting ^211At. Correlation factors to eliminate any crossover of ^125I activity in the ^211At counts were determined by measuring the ^125I standard in each window. More than one week after the experiments, the radioactivity counts of ^125I were measured after the decay of ^211At. The protein amount in cells was quantified using a BCA Protein Assay Kit (Nacalai Tesque, Kyoto, Japan) according to the manufacturer’s protocol. All data were expressed as percent dose per milligram protein (%dose/mg protein). In blocking experiments, a selective inhibitor of the PSMA, (2S)-2-(phosphonomethyl)pentanedioic acid (2-PMPA) (final concentration 100 µM), was added to each well with tracers. After incubation for 10, 60, and 120 min, radioactivity and protein concentration were determined in the same manner as the experiment without the blocking agent.

[2] = Biodistribution after intravenous co-injection of [125I]5 and [67Ga]Ga-PSMA-617 (Table S1); format: in vivo, normal mice (ddY); settings: normal mice; for Biodistribution of radioactivity: Blood / Biodistribution of radioactivity: Bone / Biodistribution of radioactivity: Brain / Biodistribution of radioactivity: Heart / Biodistribution of radioactivity: Kidney / Biodistribution of radioactivity: L. Intestine / Biodistribution of radioactivity: Liver / Biodistribution of radioactivity: Lung / Biodistribution of radioactivity: Muscle / Biodistribution of radioactivity: Neck / Biodistribution of radioactivity: Pancreas / Biodistribution of radioactivity: S. Intestine / Biodistribution of radioactivity: Spleen / Biodistribution of radioactivity: Stomach: i.v.
Experimental: [^67Ga]Ga-PSMA-617 (37 kBq) and [^125I]5 (37 kBq) or [^125I]5 (37 kBq) and [^211At]6 (37 kBq) were intravenously co-administered into three or four normal mice at each timepoint (6 weeks male ddY mice, 28–30 g, Japan SLC, Inc., Hamamatsu, Japan). Mice were sacrificed at 10 min, 1 h, 4 h, and 24 h ([^67Ga]Ga-PSMA-617 and [^125I]5) or at 10 min, 1 h, 4 h, 12 h, and 24 h ([^125I]5 and [^211At]6) postinjection of the radiolabeled compounds. Tissues of interest were removed and weighed, and the radioactivity of ^67Ga and ^125I and ^125I and ^211At were determined with an auto well gamma counter (ARC-8001) and corrected for background radiation as described in the Cellular Uptake Experiments Section. To determine the amount and routes of the radioactivity excreted from the body for 24 h after the injection of radiolabeled compounds, mice were housed in metabolic cages (METABOLICA, SUGIYAMA-GEN Co., Ltd., Tokyo, Japan). Data are shown as the percentage of injected dose per gram of tissues (%ID/g) or %ID.

[3] = In vitro stability test in 0.1 M phosphate buffer; format: physicochemical; settings: 0.1 M PB solution containing 10% ethanol, 37 °C, 24 h, mean ± SD for three samples
Experimental: samples were analyzed by RP-HPLC using a Cosmosil 5C18-AR-II (4.6 × 150 mm) at a flow rate of 1 mL/min with a gradient mobile phase of 60% methanol in water with 0.1% trifluoroacetic acid (TFA) to 80% methanol in water with 0.1% TFA for 20 min.
In vitro stability test in 0.1 M PB solution containing 10% ethanol was performed. The […]
and 97.1 ± 0.9% (mean ± SD for three samples) after incubating at 37 °C for 24 h, […]

Excretion in feces ([2]; 24 h postinjection): 2.4 ± 0.3 %ID
Excretion in urine ([2]; 24 h postinjection): 58.0 ± 2.6 %ID
Biodistribution of radioactivity: Blood ([2]; 10 min after injection): 3.40 (0.42) % injected dose per gram
Biodistribution of radioactivity: Bone ([2]; 10 min after injection): 1.02 (0.23) % injected dose per gram
Biodistribution of radioactivity: Brain ([2]; 10 min after injection): 0.11 (0.02) % injected dose per gram
Biodistribution of radioactivity: Heart ([2]; 10 min after injection): 1.22 (0.11) % injected dose per gram
Biodistribution of radioactivity: Kidney ([2]; 10 min after injection): 69.46 (8.76) % injected dose per gram
Biodistribution of radioactivity: L. Intestine ([2]; 10 min after injection): 0.58 (0.07) % injected dose per gram
Biodistribution of radioactivity: Liver ([2]; 10 min after injection): 0.74 (0.10) % injected dose per gram
Biodistribution of radioactivity: Lung ([2]; 10 min after injection): 2.60 (0.40) % injected dose per gram
Biodistribution of radioactivity: Muscle ([2]; 10 min after injection): 0.75 (0.08) % injected dose per gram
Biodistribution of radioactivity: Neck ([2]; 10 min after injection): 0.02 (0.01) % injected dose
Biodistribution of radioactivity: Pancreas ([2]; 10 min after injection): 1.03 (0.18) % injected dose per gram
Biodistribution of radioactivity: S. Intestine ([2]; 10 min after injection): 0.75 (0.03) % injected dose per gram
Biodistribution of radioactivity: Spleen ([2]; 10 min after injection): 0.96 (0.09) % injected dose per gram
Biodistribution of radioactivity: Stomach ([2]; 10 min after injection): 0.38 (0.02) % injected dose
Biodistribution of radioactivity: Blood ([2]; 1 h after injection): 0.29 (0.04) % injected dose per gram
Biodistribution of radioactivity: Bone ([2]; 1 h after injection): 0.18 (0.04) % injected dose per gram
Biodistribution of radioactivity: Brain ([2]; 1 h after injection): 0.02 (0.00) % injected dose per gram
Biodistribution of radioactivity: Heart ([2]; 1 h after injection): 0.11 (0.00) % injected dose per gram
Biodistribution of radioactivity: Kidney ([2]; 1 h after injection): 16.32 (3.17) % injected dose per gram
Biodistribution of radioactivity: L. Intestine ([2]; 1 h after injection): 0.07 (0.01) % injected dose per gram
Biodistribution of radioactivity: Liver ([2]; 1 h after injection): 0.18 (0.07) % injected dose per gram
Biodistribution of radioactivity: Lung ([2]; 1 h after injection): 0.28 (0.03) % injected dose per gram
Biodistribution of radioactivity: Muscle ([2]; 1 h after injection): 0.09 (0.00) % injected dose per gram
Biodistribution of radioactivity: Neck ([2]; 1 h after injection): 0.00 (0.00) % injected dose
Biodistribution of radioactivity: Pancreas ([2]; 1 h after injection): 0.14 (0.03) % injected dose per gram
Biodistribution of radioactivity: S. Intestine ([2]; 1 h after injection): 0.16 (0.02) % injected dose per gram
Biodistribution of radioactivity: Spleen ([2]; 1 h after injection): 0.14 (0.01) % injected dose per gram
Biodistribution of radioactivity: Stomach ([2]; 1 h after injection): 0.07 (0.02) % injected dose
Biodistribution of radioactivity: Blood ([2]; 4 h after injection): 0.07 (0.01) % injected dose per gram
Biodistribution of radioactivity: Bone ([2]; 4 h after injection): 0.14 (0.05) % injected dose per gram
Biodistribution of radioactivity: Brain ([2]; 4 h after injection): 0.01 (0.00) % injected dose per gram
Biodistribution of radioactivity: Heart ([2]; 4 h after injection): 0.04 (0.02) % injected dose per gram
Biodistribution of radioactivity: Kidney ([2]; 4 h after injection): 1.54 (0.08) % injected dose per gram
Biodistribution of radioactivity: L. Intestine ([2]; 4 h after injection): 0.59 (0.79) % injected dose per gram
Biodistribution of radioactivity: Liver ([2]; 4 h after injection): 0.08 (0.01) % injected dose per gram
Biodistribution of radioactivity: Lung ([2]; 4 h after injection): 0.06 (0.01) % injected dose per gram
Biodistribution of radioactivity: Muscle ([2]; 4 h after injection): 0.02 (0.01) % injected dose per gram
Biodistribution of radioactivity: Neck ([2]; 4 h after injection): 0.00 (0.00) % injected dose
Biodistribution of radioactivity: Pancreas ([2]; 4 h after injection): 0.04 (0.02) % injected dose per gram
Biodistribution of radioactivity: S. Intestine ([2]; 4 h after injection): 0.22 (0.17) % injected dose per gram
Biodistribution of radioactivity: Spleen ([2]; 4 h after injection): 0.05 (0.01) % injected dose per gram
Biodistribution of radioactivity: Stomach ([2]; 4 h after injection): 0.07 (0.04) % injected dose
Biodistribution of radioactivity: Blood ([2]; 24 h after injection): 0.01 (0.00) % injected dose per gram
Biodistribution of radioactivity: Bone ([2]; 24 h after injection): 0.16 (0.04) % injected dose per gram
Biodistribution of radioactivity: Brain ([2]; 24 h after injection): 0.00 (0.00) % injected dose per gram
Biodistribution of radioactivity: Heart ([2]; 24 h after injection): 0.01 (0.01) % injected dose per gram
Biodistribution of radioactivity: Kidney ([2]; 24 h after injection): 0.29 (0.06) % injected dose per gram
Biodistribution of radioactivity: L. Intestine ([2]; 24 h after injection): 0.15 (0.11) % injected dose per gram
Biodistribution of radioactivity: Liver ([2]; 24 h after injection): 0.04 (0.01) % injected dose per gram
Biodistribution of radioactivity: Lung ([2]; 24 h after injection): 0.02 (0.01) % injected dose per gram
Biodistribution of radioactivity: Muscle ([2]; 24 h after injection): 0.01 (0.00) % injected dose per gram
Biodistribution of radioactivity: Neck ([2]; 24 h after injection): 0.00 (0.00) % injected dose
Biodistribution of radioactivity: Pancreas ([2]; 24 h after injection): 0.02 (0.01) % injected dose per gram
Biodistribution of radioactivity: S. Intestine ([2]; 24 h after injection): 0.04 (0.03) % injected dose per gram
Biodistribution of radioactivity: Spleen ([2]; 24 h after injection): 0.03 (0.01) % injected dose per gram
Biodistribution of radioactivity: Stomach ([2]; 24 h after injection): 0.05 (0.04) % injected dose
SMILES: O=C([O-])CN1CCN(CC(=O)[O-])CCN(CC(=O)NCC2CCC(C(=O)NC(Cc3ccc4ccccc4c3)C(=O)NCCCCC(NC(=O)NC(CCC(=O)O)C(=O)O)C(=O)O)CC2)CCN(CC(=O)[O-])CC1.[67Ga+3] (centres unmarked) [[^67Ga]Ga-PSMA-617, reference compound]
Cellular uptake and internalization levels compared with [125I]5 and [211At]6 [1]: lower
Clearance from organs ([2]; 1 h postinjection): rapid clearance from most organs except the kidney

Radiochemical purity after incubation (in vitro stability) [3]: 93.1 ± 0.9%
SMILES: O=C([O-])CN1CCN(CC(=O)[O-])CCN(CC(=O)NC(CCCCNC(=O)CCCc2ccc(I)cc2)C(=O)NCC2CCC(C(=O)NC(Cc3ccc4ccccc4c3)C(=O)NCCCCC(NC(=O)NC(CCC(=O)O)C(=O)O)C(=O)O)CC2)CCN(CC(=O)[O-])CC1.[67Ga+3] (centres unmarked) [[^67Ga]5]
Effect of excess 2-PMPA on cellular uptake ([1]; 2-PMPA 100 µM): significantly reduced
